Article PMC9964140, “Exploration of Succinimide Derivative as a Multi-Target, Anti-Diabetic Agent: In Vitro and In Vivo Approaches” (Molecules, 2023)

Assays:
[1] = Antioxidant (DPPH) test; settings: DPPH free radical scavenging
Experimental: For identifying free radicals and the scavenging potential of new organic compounds, Sigma Aldrich USA’s DPPH was employed. Methanol was employed as a solvent for preparing test samples of varying strengths of the examined substances. Two milliliters of the test sample’s variation strength were blended separately with two milliliters of the DPPH solution and 0.002% methanol. After being stored in the dark and at room temperature for 30 min, test tubes were examined using a UV spectrophotometer to measure the absorbance at 517 nm. As is customary, ascorbic acid was employed here, and the procedure was then repeated three times. Utilizing the formula below, the tested specimen’s scavenging activity was calculated: Scavenging activity % = (A − B)/A × 100. The letters “A” and “B” stand for the absorbance of the DPPH and the test sample, respectively. By plotting a graph of the scavenging effect of the tested compounds versus the concentration of the corresponding solution, IC50 values were determined.

[2] = target: T1, PTP1 B (Homo sapiens, UniProt P18031); test: Protein tyrosine phosphatase 1 B (PTP1 B) test; assay type: biochemical; settings: ± SEM; pH 7, 40 min at 27 °C
T1 sequence (P18031 1-435): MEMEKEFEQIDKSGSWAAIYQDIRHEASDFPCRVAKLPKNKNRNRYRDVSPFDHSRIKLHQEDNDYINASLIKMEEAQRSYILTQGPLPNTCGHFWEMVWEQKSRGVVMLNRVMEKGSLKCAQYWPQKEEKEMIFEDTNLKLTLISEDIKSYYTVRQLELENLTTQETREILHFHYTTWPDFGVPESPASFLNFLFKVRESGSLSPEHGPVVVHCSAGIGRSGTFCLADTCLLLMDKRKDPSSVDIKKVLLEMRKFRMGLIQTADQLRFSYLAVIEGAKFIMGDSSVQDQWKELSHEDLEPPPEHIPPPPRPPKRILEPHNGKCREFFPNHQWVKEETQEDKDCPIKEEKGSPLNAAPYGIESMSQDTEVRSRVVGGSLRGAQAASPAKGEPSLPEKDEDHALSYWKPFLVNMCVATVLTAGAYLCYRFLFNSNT
Experimental: It is performed with a buffer solution of 3,3-dimethyl glutarate at a pH of 7. Additionally, a PTP1 B 10 mM solution, p-NO2-phenol phosphate of 1 mM, and numerous additional concentrations of the substance were made. As a result, the mixtures were incubated for 40 min at 27 °C. Then, measurements of the absorbances were conducted at 405 nm after the designated 40 min.

[3] = target: α-Glucosidase; test: Alpha-glucosidase test; assay type: biochemical; settings: ± SEM
Experimental: A concentration of 0.5 mg/11 mL distilled water and a substrate solution of glucopyranoside at 15 mg/10 mL distilled water concentration were added to […] of a phosphate buffer and kept at 37 °C for 20 min, respectively, to prepare the sample. To prepare the control, 1200 μL of the phosphate buffer was added to the test tube. Next, 400 μL of the substrate solution (glucopyranoside 15 mg/10 mL distilled water) and 800 µL of an enzyme solution were mixed. At last, the temperature was kept at 37 °C for 20 min.

[4] = target: α-Amylase; test: Alpha-amylase test; assay type: biochemical; settings: ± SEM
Experimental: In order to evaluate the alpha-amylase test, standardized reporting protocols were followed [35]. In order to combine the enzyme and the phosphate buffer, test samples of varying strengths were added to the enzymatic solution. Incubation of the sample was followed by admixing of starch to both the control and test solutions and a dinitro salicylic acid solution. The sample combination was then maintained in a boiling water bath for a short period of time, and a microplate reader was used to measure the absorbance at 656 nm.
The formula below was used to calculate the α-amylase enzyme’s percentage inhibition capability: Percent Inhibition=Absorbance of Control − Absorbance of Sample ×100/Absorbance of Control

[5] = target: DPP-4 (Homo sapiens, UniProt P27487); test: Dipeptidyl peptidase-4 (DPP-4) fluorescence probe test; assay type: biochemical; settings: ± SEM; read-out: IC50 DPP4
Chain of DPP-4 (P27487 whole entry, species assumed): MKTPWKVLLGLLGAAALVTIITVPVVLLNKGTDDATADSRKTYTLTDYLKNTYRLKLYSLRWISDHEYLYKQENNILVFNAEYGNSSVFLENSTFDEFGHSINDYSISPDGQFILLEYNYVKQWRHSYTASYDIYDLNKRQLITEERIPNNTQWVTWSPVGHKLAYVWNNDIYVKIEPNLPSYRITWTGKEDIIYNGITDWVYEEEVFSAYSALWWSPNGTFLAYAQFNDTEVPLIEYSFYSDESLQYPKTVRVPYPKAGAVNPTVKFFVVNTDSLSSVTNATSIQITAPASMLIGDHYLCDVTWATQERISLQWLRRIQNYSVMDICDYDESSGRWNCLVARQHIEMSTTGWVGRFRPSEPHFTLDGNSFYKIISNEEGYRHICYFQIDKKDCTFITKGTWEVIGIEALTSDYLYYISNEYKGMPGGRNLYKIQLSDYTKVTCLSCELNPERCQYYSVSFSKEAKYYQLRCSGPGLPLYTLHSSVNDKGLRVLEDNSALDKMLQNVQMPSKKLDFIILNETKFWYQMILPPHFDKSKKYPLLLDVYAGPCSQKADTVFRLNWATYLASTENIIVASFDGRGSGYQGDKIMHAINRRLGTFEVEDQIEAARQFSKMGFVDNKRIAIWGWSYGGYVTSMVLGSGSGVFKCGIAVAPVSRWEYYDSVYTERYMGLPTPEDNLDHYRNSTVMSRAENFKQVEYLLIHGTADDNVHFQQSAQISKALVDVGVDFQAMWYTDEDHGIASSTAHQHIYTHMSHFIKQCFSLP
Experimental: Our compound’s inhibitory impact on the DPP-4 target was identified by a fluorescence probe in vitro assay. […] In a 96-well microplate reader, the test results were recorded. At first, various concentrations of the chemical were used to determine its action. Then, in accordance with the normal approach, a dose-dependent response was identified in order to estimate the IC50 value.

[6] = system: diabetic mice; test: In vivo anti-diabetic assay (blood glucose, 21 days); parameters: species or system albino mice
Text: For in vivo anti-diabetic efficacy, albino mice having weight of 30 g were employed. The animals utilized in experiments were compliant with the 2008 Animal Bye-Laws of the Pharmacy Department at the University of Malakand in Pakistan (Scientific Procedure Issue-I). The animals were handled according to accepted practices and housed in an animal facility during the experimental procedures. The animals were put to death following the experiment in accordance with AVMA rules.
The mice were given 10% alloxan monohydrate at a dose of 150 mg/kg body weight through IP in order to induce diabetes. The control group received a normal saline IP during this trial. Following the administration of alloxan, the animals’ blood glucose levels were checked using a glucometer. According to the protocols, in the in vivo study, mice with elevated blood sugar concentrations were also utilized.
(§1) The mice were placed into 4 groups, with 5 animals in each group having elevated blood glucose levels. Group I was the normal group, which had normal blood glucose levels and was given saline. Group II was treated with a Tween 80 solution; in this group, diabetic mice were kept. Glibenclamide was administered at a 500 μM/Kg dose to group III, which was the control group with diabetic mice. Group IV, the final group, received treatment with different concentrations of the produced substance. The mice were killed after three weeks (21 days) by cervical decapitation, and blood samples and organs were taken for H & E staining-based histological analysis and for bioassays.

[7] = system: mice; settings: mouse, in vivo
Experimental: Prior to putting the drug through tests on lab animals, its acute toxicity was determined. Two groups of experimental mice, (1) the control group and (2) the test group, were used for this experiment. Each group consisted of five mice. It was conducted intraperitoneally with different concentrations of the chemical. The mice were then closely examined for three days in the animal home after the chemical was administered to check for death or any unfavorable reactions.

[8] = system: STZ-induced diabetic mice; test: Body weight, insulin, lipid profile, serum markers and histopathology in STZ-induced diabetic mice; assay type: in vivo; settings: for histopathology of liver, kidney and pancreas: H & E staining; for effect on body weight of diabetic mice: treated; for insulin levels: treated STZ-induced diabetic mice, untreated diabetic group 2.5 ± 0.15, normal control 13.5 ± 0.95
Experimental: as §1

[9] = diabetic mice, compared to diabetic mice not given the medication

With O=C1O[C@H]([C@@H](O)CO)C(O)=C1O [Ascorbic acid, reference compound] the IC50 [1] was 1440 ± 200 nM.

Molecule COc1cc(CC(C)=O)ccc1OC1CC(=O)N(Cc2ccccc2)C1=O (stereo not shown) [Compound 3, 1-benzyl-3-(2-methoxy-4-(2-oxopropyl)phenoxy)pyrrolidine-2,5-dione] has an IC50 [2] of 13.2 ± 0.11 µM, an IC50 [3] of 7.2 ± 0.92 µM and an IC50 [4] of 15.4 ± 0.15 µM. The IC50 [5] was 70 ± 30 nM, the IC50 [1] was 3310 ± 650 nM and the “Blood Glucose Level 0 Day” value ([6]; 15.625 µM/kg IP) was 22.7 mmole per Liter. The “Blood Glucose Level 7th Day” value ([6]; 15.625 µM/kg IP) was 19.7 mmole per Liter, the “Blood Glucose Level 14th Day” value ([6]; 15.625 µM/kg IP) was 17.6 mmole per Liter and the “Blood Glucose Level 21st Day” value ([6]; 15.625 µM/kg IP) was 15.1 mmole per Liter. For the same molecule, the “Blood Glucose Level 0 Day” value ([6]; 31.25 µM/kg IP) was 22.9 mmole per Liter, the “Blood Glucose Level 7th Day” value ([6]; 31.25 µM/kg IP) was 19.1 mmole per Liter and the “Blood Glucose Level 14th Day” value ([6]; 31.25 µM/kg IP) was 17.1 mmole per Liter. For the same molecule, the “Blood Glucose Level 21st Day” value ([6]; 31.25 µM/kg IP) was 13.6 mmole per Liter, the “Blood Glucose Level 0 Day” value ([6]; 62.5 µM/kg IP) was 23.2 mmole per Liter and the “Blood Glucose Level 7th Day” value ([6]; 62.5 µM/kg IP) was 19.3 mmole per Liter. The “Blood Glucose Level 14th Day” value ([6]; 62.5 µM/kg IP) was 16.7 mmole per Liter, the “Blood Glucose Level 21st Day” value ([6]; 62.5 µM/kg IP) was 13.1 mmole per Liter and the “Blood Glucose Level 0 Day” value ([6]; 125 µM/kg IP) was 22.6 mmole per Liter. For the same molecule, the “Blood Glucose Level 7th Day” value ([6]; 125 µM/kg IP) was 18.9 mmole per Liter, the “Blood Glucose Level 14th Day” value ([6]; 125 µM/kg IP) was 16.2 mmole per Liter and the “Blood Glucose Level 21st Day” value ([6]; 125 µM/kg IP) was 12.8 mmole per Liter. For the same molecule, the “Blood Glucose Level 0 Day” value ([6]; 250 µM/kg IP) was 22.4 mmole per Liter, the “Blood Glucose Level 7th Day” value ([6]; 250 µM/kg IP) was 18.4 mmole per Liter and the “Blood Glucose Level 14th Day” value ([6]; 250 µM/kg IP) was 15.7 mmole per Liter. For the same molecule, the “Blood Glucose Level 21st Day” value ([6]; 250 µM/kg IP) was 12.2 mmole per Liter, the “acute toxicity: allergic reaction” value [7] was “no sign of an allergic reaction” and the acute toxicity outcome ([7]; ip) was “safe and had no adverse effects”. The body weight gain ([8]; STZ + compound 3 group (Tg-5), final vs initial day, diabetic group lost 1.9 ± 0.05 g) was 1.55 g, the BUN ([8]; STZ-induced diabetic mice) was “decreased the excess peak” and the HDL levels ([8]; STZ-induced diabetic mice) was “raising HDL levels”. For the same molecule, the LDL levels ([8]; STZ-induced diabetic mice) was “dramatically reduced”, the creatinine ([8]; STZ-induced diabetic mice) was “decreased the excess peak” and the “serum ALP” value ([8]; STZ-induced diabetic mice) was “suppressed the enhanced rise”. The “serum ALT” value ([8]; STZ-induced diabetic mice) was “suppressed the enhanced rise”, the “serum AST” value ([8]; STZ-induced diabetic mice) was “suppressed the enhanced rise” and the “histopathology of liver, kidney and pancreas” value ([8]; STZ-induced diabetic mice) was “healed from the histological injuries”. For the same molecule, the “effect on body weight of diabetic mice” value ([8]; STZ-induced diabetic mice) was “recovered their bodyweight”, the “reduction of total cholesterol” value [8, 9] was 34.9% and the “reduction of total triglycerides” value [8, 9] was 35.20%. The “effect on body weight of non-diabetic mice” value ([8]; non-diabetic group) was “did not affect the body weights” and the insulin levels [8] was 10.9 ± 0.25 ng/mL.

In the case of COc1ccc(Cl)cc1C(=O)NCCc1ccc(S(=O)(=O)NC(=O)NC2CCCCC2)cc1 [Glibenclamide, reference compound], the “Blood Glucose Level 0 Day” value ([6]; 250 µM/kg IP) is reported as 21.5 mmole per Liter, the “Blood Glucose Level 7th Day” value ([6]; 250 µM/kg IP) is reported as 17.7 mmole per Liter and the “Blood Glucose Level 14th Day” value ([6]; 250 µM/kg IP) is reported as 14.5 mmole per Liter. For the same molecule, the “Blood Glucose Level 21st Day” value ([6]; 250 µM/kg IP) was 11.1 mmole per Liter.

In the case of CN(C)C(=N)N=C(N)N [Metformin, reference compound], the “serum ALP” value ([8]; STZ-induced diabetic mice) is reported as “suppressed the enhanced rise”, the “serum ALT” value ([8]; STZ-induced diabetic mice) is reported as “suppressed the enhanced rise” and the “serum AST” value ([8]; STZ-induced diabetic mice) is reported as “suppressed the enhanced rise”. The “histopathology of liver, kidney and pancreas” value ([8]; STZ-induced diabetic mice) was “healed from the histological injuries”, the “effect on body weight of diabetic mice” value ([8]; STZ-induced diabetic mice) was “recovered their bodyweight” and the insulin levels [8] was 12.2 ± 0.29 ng/mL.
